Experimental data published in PMC3032312 (Cell Death & Disease, 2010).

Legend:
[1] = system: 36 selected tumor cell lines; assay: ATP-Lite cell viability assay; format: cell-based, human; details: 72 h
Mcl-1 = details: displacement of fluorochrome-conjugated BH3 Bid peptide; cited from earlier work
Bcl-B = molecular target: T1, Bcl-B (Homo sapiens, UniProt Q9HD36); details: displacement of fluorochrome-conjugated BH3 Bid peptide; ABT-737; cited from earlier work
T1 sequence (Q9HD36 1-204): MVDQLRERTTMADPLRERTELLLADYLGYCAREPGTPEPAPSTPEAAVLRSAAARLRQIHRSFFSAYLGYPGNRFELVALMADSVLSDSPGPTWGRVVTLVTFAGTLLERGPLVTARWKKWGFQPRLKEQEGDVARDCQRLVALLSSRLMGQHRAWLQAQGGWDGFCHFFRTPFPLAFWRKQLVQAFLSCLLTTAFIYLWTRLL

Bfl-1 = details: displacement of fluorochrome-conjugated BH3 Bid peptide; cited from earlier work

CN(C)CC[C@H](CSc1ccccc1)Nc1ccc(S(=O)(=O)NC(=O)c2ccc(N3CCN(Cc4ccccc4-c4ccc(Cl)cc4)CC3)cc2)cc1[N+](=O)[O-] [ABT-737]
cell killing effect in six of the studied cell lines ([1]; concentration range tested 0.1-30 μM): no effect | cytotoxic activity against leukemia/lymphoma lines ([1]; leukemia/lymphoma lines, ATP-Lite): potent cytotoxic activity | IC50 values, Mcl-1 (Mcl-1): not active | IC50 values, Bcl-B (Bcl-B): not active | IC50 values, Bfl-1 (Bfl-1): not active
